We go through 2 compounds from paper PMC8921294, “Inhibition of mitochondrial LonP1 protease by allosteric blockade of ATP binding and hydrolysis via CDDO and its derivatives” (The Journal of Biological Chemistry, 2022).

Assay [1] deals with 26S proteasome. Nature of the assay: 26S proteasome-dependent degradation of p53 in HeLa ρ^0 cells (immunoblot). It counts as cell-based, human. The note with it: 7 h. The text has this:
LonP1 belongs to the AAA^+ superfamily of ATPases Associated with diverse cellular Activities, which mediate various cellular processes such as DNA replication, recombination, chromatin remodeling, ribosomal RNA processing, membrane fusion as well as ATP-dependent proteolysis ([48]). The 26S proteasome consists of the 20S proteolytic core particle, which mediates peptide bond hydrolysis and the 19S regulatory particle containing ATPases belonging to the AAA^+ family ([49]). […] We sought to test the apparent selectivity of CDDO derivatives for LonP1 but not the 26S in cultured cells. There are no known proteins that are constitutively degraded by LonP1 under baseline conditions, which would permit us to assay protease inhibition by CDDO derivatives. Therefore, we employed experimentally derived HeLa cells lacking mitochondrial DNA (mtDNA) (referred to as HeLa ρ^0 cells) ([50]), in which LonP1 constitutively degrades mitochondrial transcription factor A (TFAM) ([6]). When TFAM fails to bind mtDNA (e.g., when mtDNA is absent), it is rapidly degraded by LonP1, thus providing a readout for protease activity ([6]). An advantage of using this system is that HeLa cells express the human papillomavirus (HPV) E6 protein, which promotes constitutive degradation of p53 by the 26S proteasome. Thus, the effects of CDDO derivatives on LonP1 and the 26S proteasome can be examined in parallel.
HeLa cells devoid of mitochondrial DNA (HeLa ρ^0) and LCL cells were generated as described previously ([50]). DMEM, RPMI, and fetal bovine serum were purchased from Sigma. All cells were grown with 5% CO2 at 37 °C. LCL cells were cultured in RPMI supplemented with 15% FBS. HeLa Rho 0 cells were cultured in high glucose DMEM (25 mM) (Sigma) supplemented with sodium pyruvate ([…]) and uridine ([…]). CDDO-Me was purchased from Cayman chemicals, and CDDO-AH was synthesized as described previously ([20]). […]

In assay [2] the test system is heme oxygenase 1 (HO-1). Nature of the assay: HO-1 stabilisation in HeLa ρ^0 cells (immunoblot). It counts as cell-based, human. The note with it: 7 h. The protocol:
LonP1 knockdown stabilized HO-1 protein, whereas LonP1 overexpression decreased HO-1 protein (Fig. 4, E and F).
HeLa cells devoid of mitochondrial DNA (HeLa ρ^0) and LCL cells were generated as described previously ([50]). DMEM, RPMI, and fetal bovine serum were purchased from Sigma. All cells were grown with 5% CO2 at 37 °C. LCL cells were cultured in RPMI supplemented with 15% FBS. HeLa Rho 0 cells were cultured in high glucose DMEM (25 mM) (Sigma) supplemented with sodium pyruvate ([…]) and uridine ([…]). CDDO-Me was purchased from Cayman chemicals, and CDDO-AH was synthesized as described previously ([20]). HEK293 cells plated in 60 mm dishes at a confluency of 60 to 70% were transfected with Control or 3′UTR LonP1 siRNA using Lipofectamine 2000 (Invitrogen) and reduced serum OPTI MEM (Sigma) as described in the manufacturer’s protocol to knockdown LonP1, whereas adenoviral transduction was employed to overexpress LonP1. CDDO-Me and CDDO-anhydride were dissolved in DMSO and serially diluted in the respective complete medium and added to HeLa ρ^0 cells and were treated for 7 or 24 h.
Cells were harvested, centrifuged, and washed with PBS and proteins were extracted by adding the lysis buffer (50 mM Tris, [pH 7.5], 300 mM NaCl, and 0.5% Triton X-100) containing 2X Halt phosphatase and protease cocktail inhibitor (Thermo Scientific) for 20 min on ice. […]

In the case of `COC(=O)[C@]12CCC(C)(C)C[C@H]1[C@H]1C(=O)C=C3[C@@]4(C)C=C(C#N)C(=O)C(C)(C)[C@@H]4CC[C@@]3(C)[C@]1(C)CC2` [CDDO-Me], in assay [1] (1 μM), the “Protein levels of p53” value is “increased”. Moreover, the “26S proteasome-dependent degradation of p53” value in assay [1] (0.125 to 0.5 μM) is given as “did not block”. Besides, the “Concentration stabilising HO-1” value in assay [2] was at least 0.125 µM.
Regarding `CC1(C)CC[C@]2(C(=O)OC(=O)[C@]34CCC(C)(C)C[C@H]3[C@H]3C(=O)C=C5[C@@]6(C)C=C(C#N)C(=O)C(C)(C)[C@@H]6CC[C@@]5(C)[C@]3(C)CC4)CC[C@]3(C)[C@H](C(=O)C=C4[C@@]5(C)C=C(C#N)C(=O)C(C)(C)[C@@H]5CC[C@]43C)[C@@H]2C1` [CDDO-anhydride], the “26S proteasome-mediated degradation of p53” value in assay [1] (20 μM) is on record as “did not block”. The “Concentration stabilising HO-1” value in assay [2] is at least 0.25 µM.
